These results are taken from US20220348876A1, “METABOLISM GUIDES DEFINITIVE LINEAGE SPECIFICATION DURING ENDOTHELIAL TO HEMATOPOIETIC TRANSITION” (Amniotics AB, priority 2019, published 2022).

Molecules are shown by their SMILES.

What all share (format): cell-based, human
Test [1] relates to HE cells. As to the kind of experiment: HE cell subculture with compounds, flow cytometry. For orientation: In flow cytometry, cells or beads pass a laser one at a time.
Test [2] deals with HE cells. As to the kind of experiment: Colony forming unit assay of subcultured HE cells. The following applies: for ratio of CFU-E colonies to the sum of CFU-G, CFU-GM and CFU-M colonies: 6 days, compared to the control. On the procedure:
Subcultured HE cells were treated with StemPro Accutase Cell Dissociation Reagent for 2 minutes at 37° C. and dissociated cells were resuspended in 3 ml Methocult H4230 (STEMCELL Technologies, France) (prepared according to manufacturer's instructions, with 20 mL Iscove's Modified Dulbecco's Medium containing 2.5 μg hSCF, 5 μg GM-CSF, 2.5 μg IL-3 and 500 U EPO). Each mixture was divided onto 2 wells of a non-tissue culture treated 6-well plate. Following a 12-day incubation in a humidified incubator at 37° C., 5% CO2, 20% O2, colonies were morphologically distinguished and scored. For globin analysis, colonies in Methocult wells were harvested with PBS, washed thoroughly and frozen in RLT buffer with β-mercaptoethanol. Following RNA extraction and RT (Qiagen), gene expression was assessed with taqman probes by q-PCR. The taqman probes used in this study are HBA1/2 (Hs00361191_g1), HBE1 (Hs00362216_m1), HBG2/1 (Hs00361131_g1) and KLF1 (Hs00610592_m1).

In test [3] the test system is HE cells. As to the kind of experiment: single-cell RNAseq of treated HE cells at day 2. The method, then:
Sorted HE, EHT and HSC-like cells as well magnetically selected (Miltenyi Biotec) cord blood CD34^+ cells were plated onto Matrigel (16 μg/cm^2, Corning)-coated 96-well flat bottom plates in HE medium (Ditadi, A. & Sturgeon, C. M. Methods 101, 65-72 (2016)) with 1% penicillin-streptomycin and kept in a humidified incubator at 37° C., 5% CO2, 4% O2 overnight. The following day (day 0), wells were washed twice with PBS and fresh HE medium was added, together with UK5099 (10 μM) or DCA (3 mM), where indicated. On day 1 and 2 (as indicated), cells were washed twice with PBS 0.04% UltraPure BSA and collected after a 2-minute incubation at 37° C. with StemPro Accutase Cell Dissociation Reagent. Cells were spun down, resuspended in PBS 0.04% UltraPure BSA, counted (yield between 8,000-18,000 cells) and library preparation was conducted according to the Chromium Single Cell 3′ Reagent kit v3 instructions (10× Genomics). Sequencing was performed on a NOVASeq 6000 from Illumina with the run parameters (28-8-0-91) recommended by 10× Genomics with a final loading concentration of 300 pM of the pooled libraries. Human Umbilical Cord Blood samples were collected from Skane University Hospital (Lund and Malmo) and Helsingborg Hospital with informed consents according to guidelines approved by the regional ethical committee.
The data was processed and analyzed using Seurat v3.1.0, where cells were allowed to have up to 20% mitochondrial reads prior to log-normalization and finding the top 500 variable genes using the “vst” method. Cell cycle scores were calculated and the data was scaled regressing on mitochondrial content and the difference of the S and G2M score. Principal components were calculated prior to calculating a UMAP. Pseudotime trajectories describing two developmental routes were identified in our EHT dataset using Slingshot (Street, K. et al. BMC Genomics 19, 477 (2018)) along which the cells were ordered. The cells were then binned along each trajectory where the cell-type composition of each bin was calculated as percentages. Cord blood CD34^+ cells were mapped to our data and labeled using scCoGAPS (Stein-O'Brien, G. L. et al. Cell Syst 8, 395-411.e8 (2019)). CS13 data from Zeng et al. (Zeng, Y. et al. Cell Res 1-14 (2019)) was read and processed to make a UMAP from which the cells they name as “AEC” and “Hem” were identified. These 99 cells were mapped to our data and labeled using SCMAP (Kiselev, V. Y. et al. Nat Methods 15, 359-362 (2018)). Our EHT data was mapped to data from Zeng et al. (Zeng, Y. et al. Cell Res 1-14 (2019)) and vice versa using scCoGAPS where 10 patterns were identified in each data set and then projected to each other using projectR. Each cell was assigned to the group that achieved the highest weight. An overview showing the relationship between cell-types and patterns was done by forming a contingency table on which correspondence analysis was performed using the ca package for R. Differentially expressed genes were found using the FindAllMarkers function. Cell numbers for day 1 samples are as follows: HE=1451, EHT=1523, HSC-like=732. […] All assessed endothelial and hematopoietic genes were previously used in several publications to validate the EHT process (Zhou, F. et al. Nature 533, 487-492 (2016); Swiers, G. et al. Nat Commun 4, 2924 (2013); Ng, E. S. et al. Nature Biotechnology 34, 1168-1179 (2016) and Guibentif, C. et al. Cell Reports 19, 10-19 (2017)). […]

In test [4] the test system is HE cells. As to the kind of experiment: GPA+ clones from single HE cells on OP9-DL1 stroma. The following applies: of 552 single cells per condition, day 14; control 9. An excerpt: In some examples to further assess the effect of pyruvate manipulation on a single cell level, single HE cells were sorted onto OP9-DL1 stroma and GPA^+ clones were scored at day 14. From a total of 552 single cells per condition, 12 GPA^+ clones were detected in the UK5099-treated condition and 7 GPA^+ clones in the DCA-treated condition as compared to 9 GPA^+ clones in the control (FIG. 14, d).

The mark [5] stands for this setting: 3 or 6 days of UK5099, vs untreated.

For the molecule `O=C(O)C(Cl)Cl` [DCA, dichloroacetate], the “decrease in CD43+GPA+ population” value with HE cells [1] (day 6 of HE subculture, DCA 3 mM) is on record as 50%. In addition, the “increase in the percentage of CD43+CD45+ cells” value with HE cells [1] (deriving from HE, day 6, DCA 3 mM) is 80%. In addition, the “ratio of CFU-E colonies to the sum of CFU-G, CFU-GM and CFU-M colonies” value with HE cells [2] is reported as “more than 3 -fold lower”. Further, the “less cells in cluster 7 compared to the control” value with HE cells [3] (day 2, DCA 3 mM) is listed as 35%. Further, the “GPA+ clones” value in the test on HE cells [4] was 7.
For the molecule `N#C/C(=C\c1cn(-c2ccccc2)c2ccccc12)C(=O)O` [UK5099], the “proliferation of CD45+ cells deriving from HE” value with HE cells [1] (CTV, UK5099 10 μM or DCA 3 mM) is recorded as “did not have an effect”. The “frequency of HSC-like cells deriving from HE” value in the test with HE cells [1] (UK5099 10 μM or DCA 3 mM) is “did not have an effect”. Besides, in the test on HE cells [1] (day 3, CTV, UK5099 10 μM or DCA 3 mM), the “proliferation of the GPA+ population deriving from HE” value is listed as “No differences”. In addition, in the test on HE cells [1] (day 3 of subculture vs control, BPTES 25 μM, UK5099 10 μM, 1-AA 4 mM, DCA 3 mM), the “HE-derived CD43+GPA+ cell output” value was “striking increase”. The “levels of total CD43+ cells” value with HE cells [1] (day 6, treated vs untreated) was “unchanged”. Besides, the “proliferation by EdU incorporation” value in the test on HE cells [1] (days 1 and 2 of subculture, 24 h pulse) is “no differences”. Also, in the test on HE cells [1] (deriving from HE cells, day 6, UK5099 10 μM), the “decrease in the CD43+CD45+ population” value was 2 -fold. Moreover, in the test with HE cells [2] (setting [5]), the “erythroid colony (CFU-E) formation” value was “significantly increased”; the “granulocyte and macrophage colonies (CFU-G, GM and M)” value was “decreased”. In addition, the “ratio of CFU-E colonies to the sum of CFU-G, CFU-GM and CFU-M colonies” value in the test with HE cells [2] was 20 -fold higher. Besides, the “expression of LSD1, GFI1 and GFI1B” value in the test on HE cells [3] (UK5099-treated compared to DCA-treated cells) is recorded as “higher levels”. Further, in the test with HE cells [3] (clusters 6 and 7, vs untreated HE cells), the “average expression levels of erythroid lineage genes (RYK, KLF3, TAL1, GATA2, ZFPM1, KLF1, NFE2, ANK1, HBQ1)” value is given as “higher”. Besides, the “more cells in cluster 7 compared to the control” value with HE cells [3] (day 2, UK5099 10 μM) is recorded as 38%. The “percentage of cells in cluster 6” value in the test with HE cells [3] (day 2, UK5099 10 μM or DCA 3 mM) is “constant between conditions”. Also, in the test with HE cells [4], the “GPA+ clones” value is recorded as 12.
